# Calls of active or inactive are those of the source.
# Key:
# [1] = target: T1, Short transient receptor potential channel 4 (Mus musculus, UniProt Q9QUQ5); assay: block of DAMGO-driven TRPC4 calcium entry – cell-based, HEK293 TRPC4/mu-opioid, Fluo-4 calcium, dose response (AID 434942); type: functional;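 further: potency of inhibitors blocking the TRPC4 calcium response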
# T1 sequence (Q9QUQ5 whole entry): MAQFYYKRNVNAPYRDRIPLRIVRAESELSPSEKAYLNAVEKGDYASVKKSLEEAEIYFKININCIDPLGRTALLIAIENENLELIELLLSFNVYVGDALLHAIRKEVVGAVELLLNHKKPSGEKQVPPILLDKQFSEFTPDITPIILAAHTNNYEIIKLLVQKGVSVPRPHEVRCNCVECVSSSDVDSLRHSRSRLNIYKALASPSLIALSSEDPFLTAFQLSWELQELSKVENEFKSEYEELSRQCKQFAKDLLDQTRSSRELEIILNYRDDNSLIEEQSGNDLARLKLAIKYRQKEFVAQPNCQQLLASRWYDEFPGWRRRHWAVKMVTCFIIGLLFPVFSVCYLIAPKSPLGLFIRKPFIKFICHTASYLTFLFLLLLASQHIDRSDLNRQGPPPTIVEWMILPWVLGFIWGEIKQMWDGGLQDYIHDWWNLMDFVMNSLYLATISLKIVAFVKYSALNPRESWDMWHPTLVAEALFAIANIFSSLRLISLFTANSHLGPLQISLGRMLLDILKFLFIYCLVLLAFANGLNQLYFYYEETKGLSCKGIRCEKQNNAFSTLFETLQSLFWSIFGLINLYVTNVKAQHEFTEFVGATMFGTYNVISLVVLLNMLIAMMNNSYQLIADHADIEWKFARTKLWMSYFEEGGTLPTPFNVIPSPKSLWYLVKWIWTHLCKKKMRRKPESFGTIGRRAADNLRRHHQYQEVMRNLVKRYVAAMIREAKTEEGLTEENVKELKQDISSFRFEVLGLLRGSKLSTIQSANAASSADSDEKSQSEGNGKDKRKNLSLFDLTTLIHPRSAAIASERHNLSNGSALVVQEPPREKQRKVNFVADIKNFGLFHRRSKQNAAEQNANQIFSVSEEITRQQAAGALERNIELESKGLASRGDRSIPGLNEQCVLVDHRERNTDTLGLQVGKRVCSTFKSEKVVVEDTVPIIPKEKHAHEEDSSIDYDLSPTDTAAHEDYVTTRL
# [2] = target: ADP-ribosylation factor GTPase-activating protein 1 (Rattus norvegicus, UniProt Q62848); assay: Fluorescence polarization-based biochemical high throughput dose response screening assay to identify inhibitors of ADP-ribosylation factor GTPase activating protein 1 (ARFGAP1).; type: functional
# [3] = target: Arf-GAP with SH3 domain, ANK repeat and PH domain-containing protein 1 (Homo sapiens, UniProt Q9ULH1); type: functional;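 further: biochemical fluorescence polarization dose–response screen measuring inhibition of ASAP1; ASAP1 GAP domain stimulating GTP hydrolysis by truncated human ARF1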
# [4] = target: T2, Lysine-specific demethylase 4C (Homo sapiens, UniProt Q9H3R0); assay: inhibition of JMJD2C H3K9me3 demethylation – biochemical, DELFIA europium, cherry-picked samples, dose response (AID 488835); type: functional
# T2 sequence (Q9H3R0 whole entry): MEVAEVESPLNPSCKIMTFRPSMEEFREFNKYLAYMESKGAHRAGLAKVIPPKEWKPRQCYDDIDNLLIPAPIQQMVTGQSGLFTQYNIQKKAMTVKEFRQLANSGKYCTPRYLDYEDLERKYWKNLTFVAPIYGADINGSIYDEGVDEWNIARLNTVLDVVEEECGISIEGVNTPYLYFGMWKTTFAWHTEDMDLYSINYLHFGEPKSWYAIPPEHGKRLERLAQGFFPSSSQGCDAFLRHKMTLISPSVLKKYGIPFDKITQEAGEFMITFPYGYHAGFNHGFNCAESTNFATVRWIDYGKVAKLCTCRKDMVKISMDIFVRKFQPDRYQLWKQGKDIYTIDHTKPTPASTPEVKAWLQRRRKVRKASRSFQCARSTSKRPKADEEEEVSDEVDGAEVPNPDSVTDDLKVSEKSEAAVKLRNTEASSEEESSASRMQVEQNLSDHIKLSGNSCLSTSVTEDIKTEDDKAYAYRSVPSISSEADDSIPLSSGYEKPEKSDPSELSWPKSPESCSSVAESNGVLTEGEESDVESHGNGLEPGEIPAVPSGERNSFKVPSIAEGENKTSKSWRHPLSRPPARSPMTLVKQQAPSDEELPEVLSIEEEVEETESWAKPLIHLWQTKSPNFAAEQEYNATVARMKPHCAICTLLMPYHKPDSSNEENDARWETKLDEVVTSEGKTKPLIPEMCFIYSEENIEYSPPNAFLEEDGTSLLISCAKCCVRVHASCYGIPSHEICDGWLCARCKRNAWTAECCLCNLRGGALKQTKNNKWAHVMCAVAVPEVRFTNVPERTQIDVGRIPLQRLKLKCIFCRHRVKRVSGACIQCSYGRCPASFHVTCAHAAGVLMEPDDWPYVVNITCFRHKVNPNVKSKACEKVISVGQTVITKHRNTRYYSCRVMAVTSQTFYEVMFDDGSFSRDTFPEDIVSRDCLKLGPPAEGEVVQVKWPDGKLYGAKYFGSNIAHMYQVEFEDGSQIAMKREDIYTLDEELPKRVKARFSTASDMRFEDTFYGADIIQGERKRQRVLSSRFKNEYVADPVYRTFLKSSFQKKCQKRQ
# [5] = target: 5-hydroxytryptamine receptor 2A (Mus musculus, UniProt P35363); type: functional, cell-based;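 further: CHO-K1 cells with tagged receptor and beta-arrestin; agonist potency measured as compound-induced activation of the receptor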
# [6] = target: Mu-type opioid receptor (Homo sapiens, UniProt P35372); type: functional, cell-based;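 further: U2OS cells with beta-arrestin recruitment to OPRM1 by beta-gal complementation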
# [7] = target: T3, DNA repair protein RAD52 homolog (Homo sapiens, UniProt P43351); type: functional, biochemical
# T3 sequence (P43351 whole entry): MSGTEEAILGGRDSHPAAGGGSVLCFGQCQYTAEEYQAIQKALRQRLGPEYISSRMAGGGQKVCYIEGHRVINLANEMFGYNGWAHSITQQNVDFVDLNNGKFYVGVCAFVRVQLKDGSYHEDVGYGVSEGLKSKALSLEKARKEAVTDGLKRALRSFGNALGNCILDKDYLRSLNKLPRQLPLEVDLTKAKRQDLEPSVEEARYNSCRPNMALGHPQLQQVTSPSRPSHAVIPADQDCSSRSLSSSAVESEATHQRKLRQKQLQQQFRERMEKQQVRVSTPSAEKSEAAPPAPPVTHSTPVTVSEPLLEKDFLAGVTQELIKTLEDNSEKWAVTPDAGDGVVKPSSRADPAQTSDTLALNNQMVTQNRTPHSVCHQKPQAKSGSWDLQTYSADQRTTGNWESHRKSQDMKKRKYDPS
# [8] = cells
# [9] = target: Major prion protein (Homo sapiens, UniProt P04156); type: functional, cell-based
# [10] = target: Beta-galactosidase (Escherichia coli, UniProt Q8VNN2); assay: Dose response counterscreen for EBI2 assay utilizing the enzyme, b-galactosidase.; type: functional
# [11] = viability loss in HepG2 hepatoma cells – cell-based, ATP luminescence, cherry-pick, activator set 2, cytotoxicity control, dose response (AID 1053143); type: functional
# [12] = target: T4, NAD-dependent protein deacylase sirtuin-5, mitochondrial (Homo sapiens, UniProt Q9NXA8); assay: sirtuin-5 deacylation blockers, concentration series – biochemical, fluorescence imaging, cherry-pick, set 5, dose response (AID 720591);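 further: desuccinylation of succinyl peptide AMC substrate read as fluorescence after trypsin release; potency of inhibitors that lower fluorescence and may act on trypsin instead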
# [13] = A Cell-Based Confirmatory Screen for Compounds that Inhibit VEEV, TC-83 (3).; type: functional
# [14] = viability of Vero 76 cells – cell-based, set 3, cytotoxicity control, dose response (AID 602439); type: functional; details: Venezuelan equine encephalitis virus
# [15] = inhibitors of non-replicating M. tuberculosis, dose response, luciferase, dry powder (AID 651619); type: functional; details: Mycobacterium tuberculosis
# [16] = inhibitors of non-replicating M. tuberculosis, dose response, luciferase, dry powder (AID 651620); type: functional; details: Mycobacterium tuberculosis
# [17] = target: T5, Disintegrin and metalloproteinase domain-containing protein 17 (Homo sapiens, UniProt P78536); assay: exosite inhibitors of ADAM17, dose response, biochemical (AID 743260)
# [18] = potency of ADAM10 substrate cleavage blockers – biochemical, QFRET, dose response (AID 743254);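 further: ADAM10 enzyme with the DM2 quenched FRET peptide as substrate; EDANS fluorescence gain as the protease cuts the substrate; inhibitor potency against ADAM10 proteolytic activity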
# [19] = target: T5, Disintegrin and metalloproteinase domain-containing protein 17; assay: inhibition of ADAM17 substrate cleavage – biochemical, quenched FRET substrate, counter-screen for ADAM10 exosite inhibitor project, dose response (AID 743253)
# [20] = target: T6, Oxysterols receptor LXR-beta (Homo sapiens, UniProt P55055); type: functional, cell-based
# [21] = system: HeLa; assay: viability loss in HeLa cells – cell-based, ATP luminescence, cherry-pick samples, cytotoxicity control, dose response (AID 687004); type: functional; details: Homo sapiens
# [22] = system: HEK293; assay: viability loss in HEK293T cells – cell-based, ATP luminescence, cherry-pick samples, cytotoxicity control, dose response (AID 687005); type: functional; details: Homo sapiens;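 further: cells exposed to compound for 48 hours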
# [23] = HEK293 Cytotoxicity Assay Measured in Cell-Based System Using Plate Reader - 7071-01_Inhibitor_Dose_CherryPick_Activity_Set2.; type: functional
# [24] = T. cruzi growth inhibition in host cells, dose response, cell-based, plate reader, dry powder, set 2 (AID 652275); type: functional
# [25] = anti-trypanosomal activity in BESM host cells – imaging, CA-I/72 strain, bovine embryo skeletal muscle, dry powder, dose response (AID 651885); type: functional, cell-based
# [26] = A549 cell cytotoxicity, dose response, cytotoxicity control, plate reader, cherry-pick, antagonist series (AID 743412); type: functional, cell-based
# [27] = inhibition of bursicon-driven LGR2 cAMP signaling – cell-based, HEK293, CRE-luciferase reporter, cherry pick, dose response (AID 743342); type: functional
# [28] = target: Protein Wnt-3a (Mus musculus, UniProt P27467); assay: SAR analysis of small molecule antagonists of Gli-SUFU in a Wnt3a luminescent reporter assay.; type: functional
# [29] = target: Fatty acid synthase (Homo sapiens, UniProt P49327); assay: inhibition of human FAS-TE enzyme activity – biochemical, endpoint fluorescence intensity, powder samples, SAR follow-up (AID 652164); type: functional
# [30] = target: T4, NAD-dependent protein deacylase sirtuin-5, mitochondrial; assay: blockers of sirtuin-5 peptide desuccinylation – biochemical, fluorescence imaging, cherry-pick, set 6, dose response (AID 720597)
# [31] = viability loss in HEK293 kidney cells – cell-based, cherry-picks, set 5, cytotoxicity control, dose response (AID 1053117); type: functional
# [32] = blockers of FN fibrillogenesis by fibroblasts – AH1F cells, Alexa488-FN fluorescence, cherry-picks, dose response (AID 1035475); type: functional, cell-based
# [33] = YAP1 overexpression rescue of CTGF inhibition – DLD1 cells, RT-qPCR, cherry-pick, mechanism study for YAP1 pathway inhibitor project, dose response (AID 1053127); type: functional, cell-based; details: DLD-1
# [34] = CTGF mRNA reduction in DLD1 cells – cell-based, DLD1 colon cancer, RT-qPCR, cherry-pick, dose response (AID 1053122); type: functional; details: Cancer cell lines
# [35] = cells; remark: listed apart in the source
# [36] = target: T6, Oxysterols receptor LXR-beta; type: functional, cell-based; remark: listed apart in the source
# T5 sequence (P78536 whole entry, the tested form may be a part): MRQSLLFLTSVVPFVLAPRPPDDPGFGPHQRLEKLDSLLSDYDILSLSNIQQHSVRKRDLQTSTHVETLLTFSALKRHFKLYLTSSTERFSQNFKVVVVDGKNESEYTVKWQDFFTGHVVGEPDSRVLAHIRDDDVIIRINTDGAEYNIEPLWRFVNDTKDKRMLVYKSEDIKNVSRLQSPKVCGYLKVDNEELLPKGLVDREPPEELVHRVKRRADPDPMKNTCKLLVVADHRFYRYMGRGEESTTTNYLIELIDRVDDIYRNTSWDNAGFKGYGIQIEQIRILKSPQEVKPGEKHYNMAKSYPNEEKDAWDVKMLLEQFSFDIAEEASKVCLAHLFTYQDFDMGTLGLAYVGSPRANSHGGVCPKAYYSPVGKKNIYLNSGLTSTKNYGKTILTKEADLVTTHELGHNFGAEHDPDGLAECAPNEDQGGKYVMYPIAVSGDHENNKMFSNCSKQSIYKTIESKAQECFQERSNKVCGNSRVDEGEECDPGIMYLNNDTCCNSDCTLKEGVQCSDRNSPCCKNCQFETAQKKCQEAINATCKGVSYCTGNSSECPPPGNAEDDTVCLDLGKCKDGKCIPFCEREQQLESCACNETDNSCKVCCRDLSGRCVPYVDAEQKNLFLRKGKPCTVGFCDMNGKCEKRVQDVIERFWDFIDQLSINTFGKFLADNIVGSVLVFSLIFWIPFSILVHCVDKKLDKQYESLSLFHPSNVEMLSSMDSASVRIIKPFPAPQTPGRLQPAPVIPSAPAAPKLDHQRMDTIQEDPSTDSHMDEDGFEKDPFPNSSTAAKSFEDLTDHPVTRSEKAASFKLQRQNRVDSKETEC
# T6 sequence (P55055 whole entry): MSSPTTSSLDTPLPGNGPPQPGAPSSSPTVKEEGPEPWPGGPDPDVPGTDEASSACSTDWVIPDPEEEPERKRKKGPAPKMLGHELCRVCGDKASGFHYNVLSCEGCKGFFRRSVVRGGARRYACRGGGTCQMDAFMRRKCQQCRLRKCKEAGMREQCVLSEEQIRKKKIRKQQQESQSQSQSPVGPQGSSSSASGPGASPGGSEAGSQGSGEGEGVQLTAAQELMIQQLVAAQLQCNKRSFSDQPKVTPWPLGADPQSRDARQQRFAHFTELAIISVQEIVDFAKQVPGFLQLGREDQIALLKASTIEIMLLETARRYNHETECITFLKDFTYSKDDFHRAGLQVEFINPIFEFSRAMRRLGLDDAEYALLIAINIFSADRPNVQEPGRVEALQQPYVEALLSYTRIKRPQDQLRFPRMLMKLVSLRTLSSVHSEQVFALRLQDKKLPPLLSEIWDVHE
# T4 sequence (Q9NXA8 whole entry): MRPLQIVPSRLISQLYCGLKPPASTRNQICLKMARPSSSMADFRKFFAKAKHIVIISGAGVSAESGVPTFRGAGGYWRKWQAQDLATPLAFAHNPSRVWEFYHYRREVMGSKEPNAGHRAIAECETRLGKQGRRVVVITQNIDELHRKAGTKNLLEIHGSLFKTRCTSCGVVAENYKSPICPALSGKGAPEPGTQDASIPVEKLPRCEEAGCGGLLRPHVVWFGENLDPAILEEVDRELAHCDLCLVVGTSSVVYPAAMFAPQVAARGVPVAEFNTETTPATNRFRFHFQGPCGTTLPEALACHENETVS
# ADP-ribosylation factor GTPase-activating protein 1, sequence (Q62848 whole entry, the tested form may be a part): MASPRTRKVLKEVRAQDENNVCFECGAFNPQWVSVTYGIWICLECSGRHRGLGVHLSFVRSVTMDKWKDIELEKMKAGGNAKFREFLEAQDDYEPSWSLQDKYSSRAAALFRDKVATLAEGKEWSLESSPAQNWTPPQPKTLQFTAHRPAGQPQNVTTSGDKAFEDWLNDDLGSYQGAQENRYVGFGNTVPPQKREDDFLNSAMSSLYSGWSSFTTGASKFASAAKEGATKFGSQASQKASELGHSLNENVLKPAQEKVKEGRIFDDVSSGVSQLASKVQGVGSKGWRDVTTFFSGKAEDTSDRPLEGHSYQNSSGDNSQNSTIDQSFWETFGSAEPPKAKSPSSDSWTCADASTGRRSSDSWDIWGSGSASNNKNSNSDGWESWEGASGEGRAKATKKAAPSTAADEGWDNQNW
# Protein Wnt-3a, sequence (P27467 whole entry): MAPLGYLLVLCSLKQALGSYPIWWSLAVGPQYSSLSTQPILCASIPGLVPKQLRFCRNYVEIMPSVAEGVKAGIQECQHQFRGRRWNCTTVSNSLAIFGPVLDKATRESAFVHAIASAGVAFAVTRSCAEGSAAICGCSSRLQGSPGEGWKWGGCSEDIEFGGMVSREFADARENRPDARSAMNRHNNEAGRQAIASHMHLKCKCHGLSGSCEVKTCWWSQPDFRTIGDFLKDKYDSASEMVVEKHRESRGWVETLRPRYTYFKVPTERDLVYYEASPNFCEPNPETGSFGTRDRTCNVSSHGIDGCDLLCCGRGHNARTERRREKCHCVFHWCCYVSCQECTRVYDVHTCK
# Fatty acid synthase, sequence (P49327 whole entry): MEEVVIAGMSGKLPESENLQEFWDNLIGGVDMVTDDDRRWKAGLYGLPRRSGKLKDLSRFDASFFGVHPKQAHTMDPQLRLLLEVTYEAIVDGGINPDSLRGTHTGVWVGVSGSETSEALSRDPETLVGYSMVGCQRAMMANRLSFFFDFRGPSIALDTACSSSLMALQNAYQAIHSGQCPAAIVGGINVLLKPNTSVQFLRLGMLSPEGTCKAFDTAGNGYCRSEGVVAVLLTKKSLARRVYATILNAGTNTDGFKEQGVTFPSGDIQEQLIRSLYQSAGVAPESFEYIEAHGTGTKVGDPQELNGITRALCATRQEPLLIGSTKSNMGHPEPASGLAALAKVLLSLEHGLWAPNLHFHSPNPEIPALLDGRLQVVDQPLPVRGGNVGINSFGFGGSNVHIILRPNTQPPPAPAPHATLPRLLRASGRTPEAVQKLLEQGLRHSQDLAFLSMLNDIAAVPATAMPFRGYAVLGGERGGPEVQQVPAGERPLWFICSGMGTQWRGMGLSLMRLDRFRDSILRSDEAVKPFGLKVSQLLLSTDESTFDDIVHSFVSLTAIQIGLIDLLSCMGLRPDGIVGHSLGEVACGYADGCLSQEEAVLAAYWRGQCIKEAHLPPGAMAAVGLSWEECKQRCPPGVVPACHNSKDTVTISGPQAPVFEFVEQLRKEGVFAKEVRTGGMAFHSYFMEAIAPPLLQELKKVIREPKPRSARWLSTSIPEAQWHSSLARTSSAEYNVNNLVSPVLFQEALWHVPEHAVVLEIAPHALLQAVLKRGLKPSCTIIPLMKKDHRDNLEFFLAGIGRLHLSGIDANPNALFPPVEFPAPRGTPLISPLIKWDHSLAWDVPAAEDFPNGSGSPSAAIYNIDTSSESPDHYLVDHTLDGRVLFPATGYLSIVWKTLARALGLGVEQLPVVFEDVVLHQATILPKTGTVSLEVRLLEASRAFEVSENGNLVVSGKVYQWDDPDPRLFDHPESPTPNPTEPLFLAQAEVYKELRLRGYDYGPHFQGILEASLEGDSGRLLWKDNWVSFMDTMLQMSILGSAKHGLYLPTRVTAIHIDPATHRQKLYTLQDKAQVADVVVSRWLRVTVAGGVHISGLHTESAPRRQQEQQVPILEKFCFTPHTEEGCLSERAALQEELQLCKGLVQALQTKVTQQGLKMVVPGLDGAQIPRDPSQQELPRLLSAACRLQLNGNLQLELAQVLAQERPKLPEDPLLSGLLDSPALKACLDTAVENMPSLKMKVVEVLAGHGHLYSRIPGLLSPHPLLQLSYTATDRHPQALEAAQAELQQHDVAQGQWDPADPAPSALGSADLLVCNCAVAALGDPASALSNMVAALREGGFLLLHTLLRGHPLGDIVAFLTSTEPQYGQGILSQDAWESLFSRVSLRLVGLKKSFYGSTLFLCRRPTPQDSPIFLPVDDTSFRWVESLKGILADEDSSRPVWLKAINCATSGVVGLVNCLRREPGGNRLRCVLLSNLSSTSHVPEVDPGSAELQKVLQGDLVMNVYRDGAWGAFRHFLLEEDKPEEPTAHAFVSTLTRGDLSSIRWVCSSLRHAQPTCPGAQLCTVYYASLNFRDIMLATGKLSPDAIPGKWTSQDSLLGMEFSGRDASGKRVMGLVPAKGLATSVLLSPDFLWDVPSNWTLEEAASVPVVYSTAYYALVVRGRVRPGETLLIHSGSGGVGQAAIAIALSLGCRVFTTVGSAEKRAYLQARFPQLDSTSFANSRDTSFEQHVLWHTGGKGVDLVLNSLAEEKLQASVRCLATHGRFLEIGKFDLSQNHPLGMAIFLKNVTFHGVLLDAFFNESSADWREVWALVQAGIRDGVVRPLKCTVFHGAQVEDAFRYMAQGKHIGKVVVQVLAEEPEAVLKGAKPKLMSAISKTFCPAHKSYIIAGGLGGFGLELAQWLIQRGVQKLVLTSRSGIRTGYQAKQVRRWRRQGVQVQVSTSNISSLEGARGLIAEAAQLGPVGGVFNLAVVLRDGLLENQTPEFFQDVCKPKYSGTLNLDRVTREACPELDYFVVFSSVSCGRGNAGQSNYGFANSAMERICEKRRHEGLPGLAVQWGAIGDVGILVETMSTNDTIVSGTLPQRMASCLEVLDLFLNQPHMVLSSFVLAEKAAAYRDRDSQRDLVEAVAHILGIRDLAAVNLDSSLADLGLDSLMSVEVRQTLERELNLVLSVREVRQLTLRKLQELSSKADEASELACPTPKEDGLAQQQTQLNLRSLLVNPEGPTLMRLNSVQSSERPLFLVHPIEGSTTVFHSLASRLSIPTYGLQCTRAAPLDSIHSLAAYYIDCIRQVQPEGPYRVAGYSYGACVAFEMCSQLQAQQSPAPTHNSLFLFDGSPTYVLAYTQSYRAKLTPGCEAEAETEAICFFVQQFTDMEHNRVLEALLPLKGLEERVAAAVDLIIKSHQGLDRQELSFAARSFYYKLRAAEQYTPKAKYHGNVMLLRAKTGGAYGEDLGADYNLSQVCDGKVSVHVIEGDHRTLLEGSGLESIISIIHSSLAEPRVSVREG
smiles,measurement,setting,value
COC(=O)CSc1nnc2n(-c3ccc(OC)cc3)c(=O)c3c4c(sc3n12)CCCCC4,EC50,[1],1.5 µM (active)
same,IC50,[2],38.1 µM (inactive)
same,IC50,[3],28.2 µM (inactive)
NCC(O)c1cc(O)c(O)cc1F (configuration not stated),AC50,[4],11.2 µM (active)
same,EC50,[5],0.724 µM (active)
same,EC50,[6],92.6 µM (inactive)
same,AC50,[7],6.44 µM (active)
O=C(C1=C(O)C(=O)N(CCN2CCOCC2)C1c1cccc(F)c1)c1cc2ccccc2o1 (configuration not stated),IC50,[8],> 138 µM (inactive)
same,IC50,[9],6.77 µM (active)
CS(=O)(=O)N(CC(=O)NCCSc1ccc(Cl)cc1)c1ccc2c(c1)OCO2,IC50,[10],> 80 µM (inactive)
Cc1nc2ccccc2n1CC(O)COc1ccccc1Cl (configuration not stated),AC50,[11],> 52 µM (inactive)
same,EC50,[1],3.35 µM (active)
O=C(CCC(=O)OCc1ccc(Br)cc1)Nc1ccccc1,AC50,[12],> 30 µM (inactive)
Cc1cc(Cc2cc(C)cc(C(C)(C)C)c2O)c(O)c(Cc2cc(C)cc(C(C)(C)C)c2O)c1,IC50,[13],> 25 µM (active)
same,CC50,[14],43.1 µM (active)
CSc1nnc(-c2ccccc2)o1,IC90,[15],125 µM (active)
same,IC90,[16],125 µM (active)
COc1cccc(C2C(C#N)=C(N)Oc3c2oc(CO)cc3=O)c1 (configuration not stated),IC50,[17],> 69.5 µM (inactive)
O=C(Nc1ccc2c(c1)OCCO2)C(c1ccnc2ccccc12)N1CCC(Cc2ccccc2)CC1 (configuration not stated),IC50,[18],> 69.5 µM (inactive)
same,IC50,[19],> 69.5 µM (inactive)
Nc1c(OS(=O)(=O)c2ccccc2)cccc1OS(=O)(=O)c1ccccc1,EC50,[20],> 67.5 µM (inactive)
O=C(CN1CCOCC1)N1CC[C@@H]2[C@@H](CO)Nc3ccc(-c4ccccc4F)cc3[C@@H]21,AC50,[21],< 0.195 µM (active)
Cc1ccc(S(=O)(=O)N2CC[C@@H]3[C@H]2c2cc(-c4ccccc4F)ccc2N[C@@H]3CO)cc1,AC50,[22],> 47 µM (inactive)
same,AC50,[23],> 47 µM (inactive)
CC(C)N1C[C@H](C)[C@@H](CN(C)Cc2ccc(Cl)cc2)Oc2c(NC(=O)c3ccncc3)cccc2C1=O,AC50,[24],0.000541 µM (active)
same,IC50,[25],0.00107 µM (active)
C[C@H](CO)N1C[C@H](C)[C@H](CN(C)C(=O)Nc2ccccc2)OCCCC[C@H](C)Oc2ccc(NC(=O)CCC(F)(F)F)cc2C1=O,AC50,[26],> 52 µM (inactive)
same,AC50,[27],13.9 µM (active)
O=C(Nc1cc(N2CCCC2)ncn1)c1cccc(F)c1,IC50,[28],> 21.8 µM (inactive)
CC1CCN(S(=O)(=O)c2ccc(-c3csc(NC(=O)C4CC4)n3)cc2)CC1,IC50,[29],> 80 µM (inactive)
CCC(=O)N1CC[C@@H]2[C@@H](CO)Nc3ccc(C#Cc4cccnc4)cc3[C@@H]21,AC50,[30],> 30 µM (inactive)
COc1cccc(-c2ccc3c(c2)[C@@H]2[C@@H](CCN2S(=O)(=O)c2cccc(OC)c2)[C@H](CO)N3)c1,AC50,[31],30.5 µM (active)
same,AC50,[32],57.8 µM (active)
O=C(Cc1ccncc1)N1CCCCN2[C@H](CO)[C@H](c3ccc(C#Cc4ccccc4F)cc3)[C@@H]2C1,AC50,[33],7.5 µM (active)
same,AC50,[34],5.41 µM (active)
Fc1cccc(F)c1/C=N/Nc1ccccn1,EC50,[35],> 67.5 µM (inactive)
same,EC50,[36],> 67.5 µM (inactive)

# From ChEMBL document CHEMBL1201862, “PubChem BioAssay data set” (2004)
